For 45 compounds, z.score.t results are on record in patent publication US20260053861A1, “CELL COMPOSITIONS AND METHODS OF USING THE SAME” (THE REGENTS OF THE UNIVERSITY OF CALIFORNIA, priority 2022, published 2026).

Where a name gives a salt, the structure may show the parent alone.

In the first test the test system is hPSC-SCs.
Details: not given
In turn, `CC(C)c1cccc(C(C)C)c1O` [Propofol] returned a z.score.t of −0.411.

Consider `C[C@@H]1O[C@@H](O[C@@H]2C=C3CC[C@@H]4[C@H](CC[C@]5(C)[C@@H](c6ccc(=O)oc6)CC[C@]45O)[C@@]3(C)CC2)[C@H](O)[C@H](O)[C@H]1O` [Proscillaridin A], for which the z.score.t was −1.543.

`CC[C@@H](C)C(=O)O[C@H]1[C@H](O)[C@H]2[C@@H](CN3C[C@@H](C)CC[C@H]3[C@@]2(C)O)[C@@H]2C[C@]34O[C@]5(O)[C@@H](OC(=O)[C@@](C)(O)CC)CC[C@@]3(C)[C@@H]5[C@@H](OC(C)=O)[C@@H](OC(C)=O)[C@H]4[C@@]21O` [Protoveratrine A] showed a z.score.t of −0.3319.

As for `CN1[C@@H]2CCC[C@H]1CC(=O)C2.Cl` [Pseudopelletierine hydrochloride], the z.score.t is −0.6864.

Compound `Cc1ncc(CO)c(CO)c1O.Cl` [Pyridoxine hydrochloride] registered a z.score.t of −0.5337.

`CCC1(CC)C(=O)C=CNC1=O` [Pyrithyldione] yielded a z.score.t of 0.7158.

Consider `O.O.O=c1c(O)c(-c2ccc(O)c(O)c2)oc2cc(O)cc(O)c12` [Quercetine dihydrate], for which the z.score.t is 1.371.

Regarding `COc1ccc2c3c([nH]c2c1)[C@H]1C[C@H]2[C@H](C[C@@H](O)[C@H](OC)[C@H]2C(=O)O)CN1CC3.Cl` [Reserpinic acid hydrochloride], the z.score.t was −0.4278.

With `COc1ccn(C)c(=O)c1C#N` [Ricinine], the z.score.t came out at 0.8646.

The same test, now with this note: HTS viability of hPSC-SCs in the presence of 30 mM glucose; Prestwick library; Table S4.
Turning to `CCCNCC(O)COc1ccccc1C(=O)CCc1ccccc1` (stereo not drawn) [Propafenone hydrochloride], the z.score.t is given as 1.211.

In the case of `CC(C)[N+](C)(CCOC(=O)C1c2ccccc2Oc2ccccc21)C(C)C` [Propantheline bromide], the z.score.t was 0.9525.

As to `CCCOc1ccc(C(=O)OCCN(CC)CC)cc1N` [Proparacaine hydrochloride], the z.score.t is given as 0.7158.

In the case of `CC[N+](C)(CC)CCC[n+]1c(-c2ccccc2)c2cc(N)ccc2c2ccc(N)cc21.[I-].[I-]` [Propidium iodide], the z.score.t is given as −0.7567.

As for `CCCOc1cc(N)ccc1C(=O)OCCN(CC)CC` [Propoxycaine hydrochloride], the z.score.t is listed as −0.8229.

In the case of `CC(C)NCC(O)COc1cccc2ccccc12` (stereo not drawn) [Propranolol hydrochloride], the z.score.t is −1.412.

Turning to `CCCc1cc(=O)[nH]c(=S)[nH]1` [Propylthiouracil], the z.score.t was −0.2904.

On to `CNCCCC1c2ccccc2C=Cc2ccccc21` [Protriptyline hydrochloride], for which the z.score.t is −0.3678.

With `CC(O)Cn1cnc2c1c(=O)n(C)c(=O)n2C` (stereo not drawn) [Proxyphylline], the z.score.t is reported as −0.3023.

Regarding `COc1ccc(C[C@H](N)C(=O)N[C@H]2[C@@H](O)[C@H](n3cnc4c(N(C)C)ncnc43)O[C@@H]2CO)cc1` [Puromycin dihydrochloride], the z.score.t is given as −2.056.

`NC(=O)c1cnccn1` [Pyrazinamide]: the z.score.t worked out at 1.73.

Consider `COc1ccc(CN(CCN(C)C)c2ccccn2)cc1` [Pyrilamine maleate], for which the z.score.t was 0.07016.

As for `CCc1nc(N)nc(N)c1-c1ccc(Cl)cc1` [Pyrimethamine], the z.score.t is reported as 0.5856.

In the case of `CCN(CC)CCCC(C)Nc1c2ccc(Cl)cc2nc2ccc(OC)cc12` (stereo not drawn) [Quinacrine dihydrochloride dihydrate], the z.score.t is −1.898.

On to `CCOC(=O)[C@H](CCc1ccccc1)N[C@@H](C)C(=O)N1Cc2ccccc2C[C@H]1C(=O)O` [Quinapril HCl], for which the z.score.t was −0.1464.

As to `CCC1NC(=O)c2cc(S(N)(=O)=O)c(Cl)cc2N1` (stereo not drawn) [Quinethazone], the z.score.t is on record as −0.9264.

In the case of `O=C(O)[C@]1(O)C[C@@H](O)[C@@H](O)[C@H](O)C1` [Quinic acid], the z.score.t is on record as 0.5268.

For `C=C[C@H]1C[N@@]2CC[C@H]1C[C@@H]2[C@@H](O)c1ccnc2ccc(OC)cc12` [Quinidine hydrochloride monohydrate], the z.score.t is on record as −0.6093.

On to `CC(=O)SCC(Cc1ccccc1)C(=O)NCC(=O)OCc1ccccc1` (stereo not drawn) [Racecadotril], for which the z.score.t is −0.1853.

With `O=C(c1ccc(OCCN2CCCCC2)cc1)c1c(-c2ccc(O)cc2)sc2cc(O)ccc12` [Raloxifene hydrochloride], the z.score.t is −1.825.

On to `CCOC(=O)[C@H](CCc1ccccc1)N[C@@H](C)C(=O)N1[C@H](C(=O)O)C[C@@H]2CCC[C@@H]21` [Ramipril], for which the z.score.t was −0.5351.

For the compound `CNC(=C[N+](=O)[O-])NCCSCc1ccc(CN(C)C)o1` [Ranitidine hydrochloride], the z.score.t was 0.4486.

With `COc1ccccc1OCC(O)CN1CCN(CC(=O)Nc2c(C)cccc2C)CC1` (stereo not drawn) [Ranolazine], the z.score.t came to 1.442.

As to `COC(=O)[C@H]1[C@H]2C[C@H]3c4[nH]c5ccccc5c4CCN3C[C@H]2CC[C@@H]1O` [Rauwolscine hydrochloride], the z.score.t worked out at 1.384.

Consider `CCN1CCC[C@H]1CNC(=O)c1c(OC)ccc(Br)c1OC` [Remoxipride Hydrochloride], for which the z.score.t amounted to 0.05395.

Turning to `CCOc1cc(CC(=O)N[C@@H](CC(C)C)c2ccccc2N2CCCCC2)ccc1C(=O)O` [Repaglinide], the z.score.t is on record as −1.216.

Consider `COC(=O)[C@H]1[C@H]2C[C@@H]3c4[nH]c5cc(OC)ccc5c4CCN3C[C@H]2C[C@@H](OC(=O)/C=C/c2cc(OC)c(OC)c(OC)c2)[C@@H]1OC` [Rescinnamin], for which the z.score.t was determined as 0.006455.

Consider `COC(=O)[C@H]1[C@H]2C[C@@H]3c4[nH]c5cc(OC)ccc5c4CCN3C[C@H]2C[C@@H](OC(=O)c2cc(OC)c(OC)c(OC)c2)[C@@H]1OC` [Reserpine], for which the z.score.t was −1.042.

On to `Oc1ccc(C=Cc2cc(O)cc(O)c2)cc1` [Resveratrol], for which the z.score.t was found to be 0.9702.

For `CC1=C(/C=C/C(C)=C/C=C/C(C)=C/C(=O)O)C(C)(C)CCC1` [Retinoic acid], the z.score.t was determined as 1.751.

Consider `NC(=O)c1ncn([C@@H]2O[C@H](CO)[C@@H](O)[C@H]2O)n1` [Ribavirin], for which the z.score.t is recorded as 2.03.

Turning to `Cc1cc2nc3c(=O)[nH]c(=O)nc-3n(C[C@H](O)[C@H](O)[C@H](O)CO)c2cc1C` [Riboflavine], the z.score.t is given as 1.211.

For `NC[C@H]1O[C@H](O[C@H]2[C@H](O[C@@H]3O[C@H](CO)[C@@H](O)[C@H]3O)[C@@H](O)[C@H](N)C[C@@H]2N)[C@H](N)[C@@H](O)[C@@H]1O` [Ribostamycin sulfate salt], the z.score.t is −0.7757.

On to `CO[C@H]1/C=C/O[C@@]2(C)Oc3c(C)c(O)c4c(c3C2=O)C2=NC3(CCN(CC(C)C)CC3)NC2=C(NC(=O)/C(C)=C\C=C\[C@H](C)[C@H](O)[C@@H](C)[C@@H](O)[C@@H](C)[C@H](OC(C)=O)[C@@H]1C)C4=O` [Rifabutin], for which the z.score.t is −0.1474.

On to `CO[C@H]1/C=C/O[C@@]2(C)Oc3c(C)c(O)c4c(O)c(c(/C=N/N5CCN(C)CC5)c(O)c4c3C2=O)NC(=O)/C(C)=C\C=C\[C@H](C)[C@H](O)[C@@H](C)[C@@H](O)[C@@H](C)[C@H](OC(C)=O)[C@@H]1C` [Rifampicin], for which the z.score.t is recorded as 1.139.

As to `CCC(=O)[C@@]1(C)[C@H](C)C[C@H]2[C@@H]3CCC4=CC(=O)C=C[C@]4(C)[C@H]3[C@@H](O)C[C@@]21C` [Rimexolone], the z.score.t is listed as −1.354.
